Assay results published in patent US9616082B2, “Antitumor agent including irinotecan hydrochloride hydrate” (TAIHO PHARMACEUTICAL CO., LTD., priority 2013, dated 2017).
Where a name gives a salt, the structure may show the parent alone.

Legend:
[1] = tested on: human gastric cancer cell line (SC-2); test: Combined administration test, SC-2 tumor (Example 2); settings: CPT-11 100 mg/kg/day, Day 1, 15, i.v., q.d.; on Day 15
[2] = Kiso to Rinsho, (1990), Vol. 24, No. 14, 7-17; cited from earlier work
colorectal cancer = test: Combination therapy in a colorectal cancer patient, 28-day cycle schedule; format: in vivo, human; settings: 28-day cycle: FTD/TPI two times 5-days' administration with 2-days' rest then 2 weeks rest, CPT-11 once in 2 weeks, side effects appeared strongly
Procedure: In view of this situation, when a combination therapy comprising repeating a 28-day cycle consisting of two times of 5-days' administration with 2-days' rest of an FTD/TPI combination drug, followed by rest of the drug administration for 2 weeks, and an administration of CPT-11 once in 2 weeks was performed in a colorectal cancer patient on the basis of an administration schedule in which effects of each drug have previously been reported as in Reference Example described later, only about 30% of the predetermined amount of CPT-11 could be administered because side effects appeared strongly. Since antitumor effect is generally proportional to the total dose, the present inventors have studied on administration schedule which can suppress the occurrence of side effects and in which a predetermined amount can be administered.

[3] = tested on: human colon cancer cell line (KM20C); test: Survival of mice intraperitoneally transplanted with KM20C (Reference Example); format: in vivo, BALB/cA Jcl-nu mice; settings: i.v., weekly; for ILS (increase in life span): 6 weeks from Day 3; for Survival time (day) Mean ± SD: 6 weeks from Day 3, n=10
Procedure: Cultured cells (1×10^7 cells/mouse) of human colon cancer cell line (KM20C) were intraperitoneally transplanted into 5-6 weeks old BALB/cA Jcl-nu mice after birth, and the mice were assigned to each group so that the mean body weight of each group became equal. The date on which such grouping (n=10) was performed was taken as Day 0.
[…]. Starting the dug administration from Day 3, a 5-days' daily oral administration of the FTD/TPI combination drug with 2-days' rest was performed for 6 weeks, and CPT-11 was administered once in a week from the tail vein for 6 weeks.
As an index of the antitumor effect, the number of survivors of each group of mice and the survival time of each group was compared.

For CCc1c2c(nc3ccc(OC(=O)N4CCC(N5CCCCC5)CC4)cc13)-c1cc3c(c(=O)n1C2)COC(=O)[C@]3(O)CC [CPT-11, irinotecan hydrochloride hydrate], the “TGI (tumor growth inhibition rate)” value [1] is given as 78.2%, the “dose at which a death case was reported” value [2] is given as 111 mg/kg/day and the “share of the predetermined amount of CPT-11 that could be administered” value (colorectal cancer) is given as “about 30%”. For the same compound, the “ILS (increase in life span)” value ([3]; CPT-11 80 mg/kg/day) was 54.0%, the “Survival time (day) Mean ± SD” value ([3]; CPT-11 80 mg/kg/day) was 61.6 ± 12.6 days and the “ILS (increase in life span)” value ([3]; CPT-11 100 mg/kg/day) was 81.3%. The “Survival time (day) Mean ± SD” value ([3]; CPT-11 100 mg/kg/day) was 72.5 ± 12.3 days.
